“Also recorded” adds a separate entry of the source.
How the values were obtained:
[1] = tested on: 6 Hz limbic seizures; assay: 6 Hz limbic (psychomotor) seizure test; assay type: in vivo, mouse
Source text: Mice not displaying limbic seizures were considered protected.
As mentioned above, the 6 Hz seizure becomes more resistant to block by antiepileptic drugs as the current is increased from 22 mA to 44 mA.

[2] = tested on: mechanical allodynia; assay: Sciatic nerve ligation model of chronic pain, mechanical allodynia (Von Frey); assay type: in vivo, rat; conditions: 2 mg/kg i.p.
Procedure: Just prior to surgery, rats are treated subcutaneously with 0.1 to 0.5 mg/kg of the long acting opiate buprenorphine. Rats are then anesthetized with pentobarbital and the depth of anesthesia monitored by their response to a tail pinch and observation of the depth of respiration. Sterile technique was used throughout the surgery.
The upper thigh of each rat was shaved and wiped off with ethanol and betadine. A small incision was made in the skin and through the underlying muscle of the upper thigh until the sciatic nerve was exposed. The nerve was then separated from the surrounding connective tissue and slightly elevated by a pair of fine, curved forceps. Approximately ⅓ to ½ of the nerve was then tied off by passing a needle and nylon suture (7.0) through the nerve. […] Rats were closely monitored daily for the development of infection or untoward effects of the surgery.
After an appropriate time for recovery (e.g., 7-14 days) the animals were tested for the development of mechanical allodynia (pain response to a non-noxious stimulus). […] After a 30-60 minute acclimation period, a baseline mechanical sensitivity was determined. […] This procedure was repeated until a 50% threshold for withdrawal could be determined.

[3] = tested on: tonic-extension (maximal electroshock) seizures; assay: Maximal electroshock seizure (MES) test; assay type: in vivo, mouse; conditions: 4 mg/kg i.p., tested one hour later
Source text: Abolition of the hindleg tonic extensor component of the seizure is used as the endpoint.

[4] = tested on: formalin-induced paw licking; assay: Mouse formalin test of inflammatory pain; assay type: in vivo
Procedure: An injection of 0.5% formalin is made into the planter region of a mouse right hind paw. This elicits a distinct biphasic behavioral profile characterized by the mouse licking the affected paw. Immediately following the injection the mouse licks the paw for about 10 minutes. This is phase 1 (acute) and is followed by a brief latent period where there is little behavioral activity. A more prolonged period of about 20 to 30 minutes of paw licking ensues which constitutes phase 2 (inflammatory).
Prior to the administration of the active peptide, drug or vehicle each mouse undergoes a 15-minute conditioning period in one of several 6″ tall plexiglass observation tubes (4″ diameter) that are placed in front of a mirror. […] One hour after treatment, formalin was injected sub-dermally (20 μl; 27 gauge needle) into the plantar surface of the right hind foot. The bevel of the needle is placed facing down toward the skin surface. Following the injection of the formalin each animal is observed for first 2 minutes of each 5 minute epoch for a total of 45 minutes. The cumulative length of licking for each 2 minute time period was measured. An animal receiving the requisite volume of vehicle was alternated with each mouse given GAL-BBB2, Gal 1-16, or gabapentin. Animals were euthanized following the conclusion of the experiment.
Area under the curve (AUC) determination was made using the GraphPad Prism Version 3.03. Total AUC is calculated for both the test and control groups for both the acute and inflammatory phases. The AUC for individual animals for each phase is also calculated and converted to percentage of total AUC of control. The average percentages and SEM for both the drug treated and control were calculated and tested for significant difference.

Substance: Sar-Trp-Thr-Leu-Asn-Ser-Ala-Gly-Tyr-Leu-Leu-Gly-Pro-Lys-Lys-(Lys-palm)-Lys-NH2 [NAX 5055]
- activity in pharmaco-resistant seizure model ([1]; 4 mg/kg): active
- potency and efficacy relative to native peptide fragment ([1]; 6 Hz (32 mA), i.c.v.): more potent and efficacious than the native peptide fragment GAL(1-16)
- % Protection at 2 hours afforded by a dose of 4 mg/kg, i.p. ([1]; 2 h, 4 mg/kg i.p.): 100%
- % Protection at 4 hours afforded by a dose of 4 mg/kg, i.p. ([1]; 4 h, 4 mg/kg i.p.): 0%
- ED50 in the 6 Hz limbic seizure model (in Table 14 in parentheses) ([1]; i.p., SAR analogs): (0.8 mg/kg)
- ED50 following i.c.v. administration ([1]; intracerebroventricular, 6 Hz (32 mA)): 0.07 nmol
- anticonvulsant activity following subcutaneous administration ([1]; s.c., 32 mA, 60 min, CF-1 mice): preserved; also recorded: retained
- threshold for mechanical allodynia ([2]; 30 min to 6 h): time-dependent increase in the threshold for mechanical allodynia
- potency relative to morphine (2 mg/kg) and gabapentin (40 mg/kg) ([2]; listed as GAL-BBB2): equi-potent to morphine; also recorded: several fold more potent that gabapentin
- activity in maximal electroshock seizure test [3]: completely inactive
- effect compared with gabapentin ([4]; 5 mg/kg): equivalent to a 10 mg/kg dose of gabapentin
- paw licking, acute and inflammatory phase ([4]; 0.52-5 mg/kg i.p., 1 h before formalin): dose-dependent reduction in paw licking
- phase II response at the active dose ([4]; mouse formalin assay): (“flat phase II”)
- Active at ([4]; mouse formalin assay of inflammatory pain): 5 mg/kg
- potency in mouse formalin assay ([4]; mouse, in vivo): potent

From patent US9586999B2, “Methods and compositions related to improving properties of pharmacological agents targeting nervous system” (University of Utah Research Foundation, priority 2006, dated 2017)
